Assay results taken from EPA's CvTdb concentration-time database.

Legend:
Experiment in all cases: concentration in plasma after dosing
Rat [1] = conditions: dosed: Free Carbon disulfide, 50 mg/kg, iv, Male, F344
Rat [2] = conditions: dosed: Free Carbon disulfide, iv, Male, F344
Rat [3] = conditions: dosed: Free Carbon disulfide, 10 mg/kg, iv, Male, F344
Rat [4] = conditions: dosed: Free Carbon disulfide, 50 mg/kg, iv, Male, F344; remark: listed apart in the source
Rat [5] = conditions: dosed: Free Carbon disulfide, 10 mg/kg, iv, Male, F344; remark: listed apart in the source

S=C=S [Free Carbon disulfide]
concentration in plasma [µg/g]
Conditions	0.05 h	1 h	5 min	10 min	20 min	40 min
Rat [1]	20.2	2	15.9	9.5	5.6	2.6
Rat [3]	5.8	–	7.9	1.4	–	–
Rat [4]	21.2	1.2	11	6.6	4.9	1.8
Rat [5]	4.2	–	2.5	1.4	0.7	–

concentration in plasma [µg/g], Rat [2]
Conditions	0.05 h	1 h	2 h	5 min	10 min	20 min	40 min
10 mg/kg	5	–	–	1.9	1.2	0.8	–
50 mg/kg	13.1	1.6	0.9	8.3	6.4	6.8	4.2
